Ends that are not written are not given here.
Columns and labels:
[1] = test system: panel of bacteria; assay: Broth microdilution antimicrobial assay; assay type: cell-based; conditions: all organisms tested, 100 µM to 49 nM compound, 37 °C, no visible growth after 18 h (24 h M. smegmatis), at least 2 replicates
[2] = test system: Bacillus subtilis 168; assay: Broth microdilution antimicrobial assay; assay type: cell-based; conditions: Mueller-Hinton broth, 100 µM to 49 nM, 37 °C, 18 h, at least 2 replicates
[3] = test system: E. coli MC4100; assay: Broth microdilution antimicrobial assay; assay type: cell-based, Escherichia coli; conditions: Mueller-Hinton broth, 100 µM to 49 nM, 37 °C, 18 h, at least 2 replicates
[4] = test system: Enterococcus faecium U503 (VRE); assay: Broth microdilution antimicrobial assay; assay type: cell-based; conditions: Mueller-Hinton broth, 100 µM to 49 nM, 37 °C, 18 h, at least 2 replicates
[5] = test system: Bacillus anthracis Sterne; assay type: cell-based
[6] = test system: Mycobacterium smegmatis NRRL B-14616; assay: Broth microdilution antimicrobial assay; assay type: cell-based; conditions: Mueller-Hinton broth, 100 µM to 49 nM, 37 °C, 24 h, at least 2 replicates

Sequence	growth-suppressive activity [1]	growth-suppressive activity [2]	growth-suppressive activity [3]	also measured
SYHWGDYHDWHHGWYGWWDD (also: lariat or depsi (positions not given here)) [moomysin]	lacked growth suppressive activity towards all organisms tested	–	–	–
GFIGWGNDIFGHYSGG (also: lariat or depsi (positions not given here)) [anantin B2]	–	moderately active	weak activity	–
GFIGWGNDIFGHYSGGF (also: lariat or depsi (positions not given here)) [anantin B1]	–	–	weak activity	–
GRPNWGFENDWSCVRVC (also: bicyclic or more (positions not given here)) [LP2006]	–	active	–	growth-suppressive activity [4]: active; growth-suppressive activity [5]: active; growth-suppressive activity [6]: active
LLGLAGNDRLVLSKN (also: lariat or depsi (positions not given here)) [Citrulassin A]	lacked growth suppressive activity towards all organisms tested	–	–	–
LAGQGSPDLLGGHSLL (also: lariat or depsi (positions not given here)) [lagmysin]	lacked growth suppressive activity towards all organisms tested	–	–	–

Source: publication PMC5391289 (Nature chemical biology, 2017)
